This is an account of results in patent US9067922B2, “Chemical compounds” (Pfizer Limited, priority 2013, dated 2015).

The target of this experiment is URAT-1 transporter (Homo sapiens (Human), UniProt Q96S37). Description: URAT-1 inhibitor activity: [14C]-uric acid uptake in CHO-URAT1(L)GFP#8 (CHO#8) cells, scintillation proximity. It is filed as cell-based. Conditions: inhibition of [14C]-uric acid (30 nM) uptake into CHO#8 cells; compound 0 to 10 μM; 4 parameter logistic fit. The source says:
The nucleotide sequence for the long isoform of URAT1 (NM_144585) was C-terminally fused to that of enhanced green fluorescent protein (eGFP) (hereinafter referred to as URAT1(L)GFP). The combined sequence was codon-optimised and custom synthesized. The synthesized sequence was generated in pDONR221 Gateway entry vector (Invitrogen Life Technologies) prior to cloning in pLenti6.3/V5 Gateway destination vector (Invitrogen Life Technologies).
Lentiviral particles were generated according to ViraPower HiPerform expression system procedure (Invitrogen Life Technologies) and used to transduce CHO cells. […] The clonal pools were sorted using fluorescence-activated cell sorting (FACS) on the basis of GFP expression with the gating set at the top 50% of expression into single cells which were subsequently expanded to generate clonal lines. […] This cell line was used for all screening activities and is referred to as CHO-URAT1(L)GFP#8 or CHO#8.
The potency of the compounds of formula (I) as inhibitors of the URAT-1 transporter was determined as follows.
CHO#8 cells were cultured in cell line maintenance flasks in medium consisting of Dulbecco's modified Eagle medium (DMEM) with high glucose and sodium pyruvate (4.5 g of glucose per liter, Invitrogen Life Technologies), supplemented with heat-inactivated foetal bovine serum (FBC, 10% v/v), 1×NEAA (non-essential amino acids) and blasticidin (10 μg/ml). Cultures were grown in 175 cm^2 tissue culture flasks in a humidified incubator at approximately 37° C. in approximately 95% air/5% CO2. Near confluent CHO#8 cell cultures were harvested by trypsinisation, re-suspended in culture medium and the process was repeated once or twice weekly to provide sufficient cells for use.
Assay ready flasks were generated by the same method, except the cells were not cultured in blasticidin.
Assay ready frozen cells were generated by freezing 40,000,000 cells in 1 ml of FBS (without blasticidin) containing 10% DMSO per vial. One vial was sufficient for 5 assay plates. Each vial was thawed rapidly to 37° C., washed and re-suspended in pre-warmed culture medium for seeding onto assay plates.
CHO#8 cells were seeded onto Cytostar™ 96-well plates at a density of […]. The cells were cultured for 1 day at approximately 37° C. in a humidified incubator containing approximately 5% CO2 in air. After approximately 24 hours culture, cells were used for uptake experiments.
On the day of assay, culture medium was removed from the wells and the cells were washed once with 50 μL of chloride-containing buffer (136.7 mM NaCl, 5.36 mM KCl, 0.952 mM CaCl2, 0.441 mM KH2PO4, 0.812 mM MgSO4, 5.6 mM D-glucose, 0.383 mM Na2HPO4.2H2O, 10 mM HEPES, pH 7.4 with NaOH). The cells were pre-incubated with another 50 μL of chloride-containing buffer for one hour at approximately 37° C. in a humidified incubator containing approximately 5% CO2 in air.
Assay compound plates were prepared by diluting the compounds of formula (I) with chloride-free buffer (125 mM Na-gluconate, 4.8 mM K-gluconate, 1.3 mM Ca-gluconate, 1.2 mM KH2PO4, 1.2 mM MgSO4, 5.6 mM D-glucose, 25 mM HEPES, pH 7.4 with NaOH) in 100% DMSO to a final concentration of 1% DMSO. [^14C]-Uric Uric acid working stock was made by addition of radiolabeled compound to a final concentration of 120 nM in chloride-free buffer. In all wells, the final assay concentration of solvent (DMSO) was 0.25%; the final assay concentration of [^14C]-uric acid was 30 nM in chloride-free buffer and the final compound of formula (I) concentrations ranged from 0 to 10 μM.
After pre-incubation, cells were washed with 50 μL of chloride-free buffer and another 50 μL of chloride-free buffer was added.

For the compound `COc1ccc(C)cc1Oc1ccc(S(=O)(=O)Nc2ccc(F)cn2)cc1C#N` [Example 155, 3-cyano-N-(5-fluoropyridin-2-yl)-4-(2-methoxy-5-methylphenoxy)benzenesulfonamide], the IC50 came to 191 nM. On to `N#Cc1cc(S(=O)(=O)Nc2ccc(F)cn2)ccc1Oc1cccc(Cl)c1Cl` [Example 3, 3-cyano-4-(2,3-dichlorophenoxy)-N-(5-fluoropyridin-2-yl)benzenesulfonamide], for which the IC50 was found to be 141 nM. For the compound `COc1cccc(Cl)c1Oc1ccc(S(=O)(=O)Nc2ccc(F)cn2)cc1C#N` [Example 114, 4-(2-chloro-6-methoxyphenoxy)-3-cyano-N-(5-fluoropyridin-2-yl)benzenesulfonamide], the IC50 came out at 69 nM. Under `Cc1ncccc1Oc1ccc(S(=O)(=O)Nc2ccc(F)cn2)cc1C#N` [Example 184, 3-cyano-N-(5-fluoropyridin-2-yl)-4-[(2-methylpyridin-3-yl)oxy]benzenesulfonamide] stands 385 nM. Under `N#Cc1ccc(Oc2ccc(S(=O)(=O)Nc3cnccn3)cc2C#N)cc1Cl` [Example 93, 4-(3-chloro-4-cyanophenoxy)-3-cyano-N-(pyrazin-2-yl)benzenesulfonamide] stands 2980 nM; under `N#Cc1cc(S(=O)(=O)Nc2ccc(F)cn2)ccc1Oc1ccc(F)cc1Cl` [Example 31, 4-(2-chloro-4-fluorophenoxy)-3-cyano-N-(5-fluoropyridin-2-yl)benzenesulfonamide], 78 nM. Under `Cc1cccnc1NS(=O)(=O)c1ccc(Oc2ccc(C#N)c(Cl)c2)c(C#N)c1` [Example 101, 4-(3-chloro-4-cyanophenoxy)-3-cyano-N-(3-methylpyridin-2-yl)benzenesulfonamide] stands 594 nM; under `COc1c(F)ccc(Oc2ccc(S(=O)(=O)Nc3ccc(F)cn3)cc2C#N)c1Cl` [Example 112, 4-(2-chloro-4-fluoro-3-methoxyphenoxy)-3-cyano-N-(5-fluoropyridin-2-yl)benzenesulfonamide], 177 nM; under `N#Cc1cc(S(=O)(=O)Nc2ccc(F)cn2)ccc1Oc1cnc(C2CC2)c(Cl)c1` [Example 180, 4-[(5-chloro-6-cyclopropylpyridin-3-yl)oxy]-3-cyano-N-(5-fluoropyridin-2-yl)benzenesulfonamide], 877 nM. Regarding `N#Cc1ccc(F)c(Oc2ccc(S(=O)(=O)Nc3ccc(F)cn3)cc2C#N)c1` [Example 69, 3-cyano-4-(5-cyano-2-fluorophenoxy)-N-(5-fluoropyridin-2-yl)benzenesulfonamide], the concentration for half-maximal inhibition (IC50) amounted to 1310 nM. Under `N#Cc1cc(S(=O)(=O)Nc2ccc(F)cn2)ccc1Oc1ccccc1Br` [Example 189, 4-(2-bromophenoxy)-3-cyano-N-(5-fluoropyridin-2-yl)benzenesulfonamide] stands 103 nM. Under `Cc1cc(C)cc(Oc2ccc(S(=O)(=O)Nc3ccc(F)cn3)cc2C#N)c1` [Example 150, 3-cyano-4-(3,5-dimethylphenoxy)-N-(5-fluoropyridin-2-yl)benzenesulfonamide] stands 329 nM; under `N#Cc1cc(S(=O)(=O)Nc2ccc(F)cn2)ccc1Oc1ccc(Br)cc1` [Example 163, 4-(4-bromophenoxy)-3-cyano-N-(5-fluoropyridin-2-yl)benzenesulfonamide], greater than 10000 nM. Under `Cc1cc(F)ccc1Oc1ccc(S(=O)(=O)Nc2ccc(F)cn2)cc1C#N` [Example 145, 3-cyano-4-(4-fluoro-2-methylphenoxy)-N-(5-fluoropyridin-2-yl)benzenesulfonamide] stands 96 nM.

`N#Cc1ccc(Oc2ccc(S(=O)(=O)Nc3ccc(F)cn3)cc2C#N)c(Cl)c1` [Example 30, 4-(2-chloro-4-cyanophenoxy)-3-cyano-N-(5-fluoropyridin-2-yl)benzenesulfonamide] displayed an IC50 of 183 nM. Under `O=S(=O)(Nc1ccc(F)cn1)c1ccc(Oc2cnc(CO)c(Cl)c2)cc1F` [compound 239, 4-{[5-chloro-6-(hydroxymethyl)pyridin-3-yl]oxy}-2-fluoro-N-(5-fluoropyridin-2-yl)benzenesulfonamide] stands 2 nM; under `Cc1ccc(NS(=O)(=O)c2ccc(Oc3cccc(Cl)c3C#N)cc2)nc1` [Example 221, 4-(3-chloro-2-cyanophenoxy)-N-(5-methylpyridin-2-yl)benzenesulfonamide], greater than 10000 nM; under `CC(C)c1ccccc1Oc1ccc(S(=O)(=O)Nc2ccc(F)cn2)cc1C#N` [Example 49, 3-cyano-N-(5-fluoropyridin-2-yl)-4-[2-(propan-2-yl)phenoxy]benzenesulfonamide], greater than 1380 nM. `N#Cc1cc(S(=O)(=O)Nc2ccc(F)cn2)ccc1Oc1cnc(C#N)c(Cl)c1` [Example 68, 4-[(5-chloro-6-cyanopyridin-3-yl)oxy]-3-cyano-N-(5-fluoropyridin-2-yl)benzenesulfonamide] came in with an IC50 of 155 nM. Under `N#Cc1cc(S(=O)(=O)Nc2ccc(F)cn2)ccc1Oc1ccc(Cl)c(CO)c1` [compound 240] stands 106 nM; under `COc1ccc(Oc2ccc(S(=O)(=O)Nc3ccc(F)cn3)cc2C#N)c(Cl)c1` [Example 168, 4-(2-chloro-4-methoxyphenoxy)-3-cyano-N-(5-fluoropyridin-2-yl)benzenesulfonamide], 612 nM. `COc1ccc(Cl)cc1Oc1ccc(S(=O)(=O)Nc2ccc(F)cn2)cc1C#N` [Example 106, 4-(5-chloro-2-methoxyphenoxy)-3-cyano-N-(5-fluoropyridin-2-yl)benzenesulfonamide] yielded an IC50 greater than 10000 nM. Under `Cc1cc(Oc2ccc(S(=O)(=O)Nc3ccc(F)cn3)cc2C#N)cc(Cl)c1C` [Example 171, 4-(3-chloro-4,5-dimethylphenoxy)-3-cyano-N-(5-fluoropyridin-2-yl)benzenesulfonamide] stands 215 nM; under `N#Cc1ccc(Oc2ccc(S(=O)(=O)Nc3ccc(Cl)cn3)cc2C#N)cc1Cl` [compound 232, 4-(3-chloro-4-cyanophenoxy)-N-(5-chloropyridin-2-yl)-3-cyanobenzenesulfonamide], 12 nM.

Compound `N#Cc1ccc(Oc2ccc(S(=O)(=O)Nc3cccnn3)cc2C#N)cc1F` [Example 88, 3-cyano-4-(4-cyano-3-fluorophenoxy)-N-(pyridazin-3-yl)benzenesulfonamide] yielded an IC50 of 429 nM. Under `Cc1ccncc1Oc1ccc(S(=O)(=O)Nc2ccc(F)cn2)cc1C#N` [Example 198, 3-cyano-N-(5-fluoropyridin-2-yl)-4-[(4-methylpyridin-3-yl)oxy]benzenesulfonamide] stands 792 nM. Under “4-{4-chloro-2-[D3-methyloxy]phenoxy}-3-cyano-N-(pyridazin-3-yl)benzenesulfonamide [Example 82]” stands 409 nM; under `Cc1ccccc1Oc1ccc(S(=O)(=O)Nc2ccc(F)cn2)cc1C#N` [Example 186, 3-cyano-N-(5-fluoropyridin-2-yl)-4-(2-methylphenoxy)benzenesulfonamide], 324 nM. Under `CCc1cccc(Oc2ccc(S(=O)(=O)Nc3ccc(F)cn3)cc2C#N)c1` [Example 2, 3-cyano-4-(3-ethylphenoxy)-N-(5-fluoropyridin-2-yl)benzenesulfonamide] stands greater than 10000 nM; under `N#Cc1cc(S(=O)(=O)Nc2ccc(F)cn2)ccc1Oc1ccc(C#N)c(C2CC2)c1` [Example 203, 3-cyano-4-(4-cyano-3-cyclopropylphenoxy)-N-(5-fluoropyridin-2-yl)benzenesulfonamide], 37 nM; under `CC(C)c1cccc(Oc2ccc(S(=O)(=O)Nc3ccc(F)cn3)cc2C#N)c1` [Example 57, 3-cyano-N-(5-fluoropyridin-2-yl)-4-[3-(propan-2-yl)phenoxy]benzenesulfonamide], greater than 10000 nM.
